From patent US10596296B2, “Heparan sulphates” (Agency for Science, Technology and Research, priority 2014, dated 2020)

Experiments:
TGF-β1 [1] = target: T1, TGF-β1 (Homo sapiens, UniProt P01137); assay: SPR competitive binding: soluble GAG competes for TGF-β1 against heparin-coated chip; details: for ability to competitively inhibit TGF-β1 binding to immobilized heparin: 200 nM TGF-β1 pre-incubated with 5 or 10 μg GAG
T1 construct: full length mature TGF-β1 is 112 amino acids in length
Method: Biotinylated heparin was prepared based on the protocol reported by Hernaiz et al. (33). Briefly, 20 mg of heparin was filter-sterilized (0.22 μm) in 1 ml of water and incubated with 8.6 μmol of N-hydroxysuccinimide-biotin (NHS-biotin) (Pierce) in 20 μl of dimethyl sulfoxide (DMSO) for 2 h at 4° C. The biotinylated heparin was then extensively dialyzed (7000 MWCO) to remove unreacted biotin. Immobilization of the biotinylated heparin onto a streptavidin (SA) sensor chip (GE Healthcare) was carried out using the immobilization wizard on the Biacore T100 (GE Healthcare) with a targeted immobilization level of approximately 40 response units (RUs). HBS-EP running buffer (10 mM HEPES, 150 mM NaCl, 3.0 mM EDTA, 0.05% (v/v) Tween 20, pH 7.4) was used for the immobilization.
TGF-β1-heparin interactions were effected by preparing a series of TGF-β1 protein samples (50 to 800 nM final concentration) diluted in HBS-EP-0.1 running buffer (0.1% instead of 0.05% (v/v) Tween 20). […] The sample solutions were then injected over the heparin-coated chip at a flow rate of 30 μl/min for 120 s, with HBS-EP-0.1 being subsequently passed over the chip for a further 1200 s to monitor TGF-β1 dissociation. After dissociation, the sensor surface on the chip was regenerated by 2 washes of 2 M NaCl injected at 30 μl/min for 60 s. The response was measured as a function of time (sensogram) at 25° C. The maximum binding response for each condition was normalized to the response obtained from TGF-β1 alone.

[2] = tested on: TGF-β1 signaling (pSMAD2, pSMAD3) in hMSCs; assay: Western blotting of pSMAD2/pSMAD3 in hMSCs treated with TGF-β1 and GAG; assay type: cell-based, human; details: TGF-β1 1 ng/ml pre-incubated with 10 μg/ml GAG; 6 h
Method: Primary hMSCs (Lonza) were isolated from the bone marrow mononuclear cells of a young healthy adult human donor by plastic adherence and characterized as previously described (30,31). The adherent cells were maintained in a basal media consisting of DMEM-low glucose (1000 mg/l, DMEM-LG) supplemented with 10% fetal calf serum, 100 U/ml penicillin, 100 μg/ml streptomycin and 2 mM L-glutamine, and cultured under standard conditions at 37° C. and 5% CO2 in a humidified atmosphere. Media replacement was every three days. Cells were detached with 0.125% trypsin/Versene (pH 7.0) upon reaching 75-80% confluence, and re-plated at a density of 3,000 cells/cm^2 under the same culture conditions. All experiments were carried out with cells at passage 5.
Human MSCs were cultured in 6-well plates in basal media for 24 h at a density of 10,000 cells/cm^2. TGF-β1 treatments were then prepared at either 1 ng/ml or 5 ng/ml alone or in the presence of either 10 μg/ml or 40 μg/ml of full length heparin, or 1 ng/ml of TGF-β1 with 10 μg/ml size-fractionated or selectively desulfated heparin, HS^PM, HS16+ or HS16−, and incubated at room temperature for 10 min before being added to the cells. Latent TGF-β1 (LTGF-β1) treatments were similarly prepared at 3.3 ng/ml alone or with 10 μg/ml of the various GAGs described above. For inhibitor studies, the cells were pre-treated for 30 min with 10 μM SB431542 (Sigma-Aldrich) or DMSO before treatment with TGF-β1. […] Samples were then immunoblotted with antibodies against SMAD2/3 (#3102, Cell Signaling), phosphorylated SMAD2 (pSMAD2, #3108, Cell Signaling), phosphorylated SMAD3 (pSMAD3, #9520, Cell Signaling) and actin (MAB1501R, Millipore). Densitometry was carried out using Quantity One software (version 4.6.6, Bio-Rad).

TGF-β1 [3] = target: T1, TGF-β1; assay: GAG-binding plate assay; details: wells coated with 5 μg/ml GAG
Method: GAGs are immobilized in each well and then challenged with TGF-β1 according to the manufacturer's instructions. Briefly, triplicate wells are first pre-coated with 5 μg/ml of heparin, HS^PM, HS16^+ve or HS16^−ve in standard assay buffer (SAB: 100 mM NaCl, 50 mM sodium acetate, 0.2% v/v Tween 20, pH 7.2), and then incubated overnight at room temperature. The plates are next washed carefully three times with SAB, blocked with 250 μl of blocking solution (0.4% w/v fish skin gelatine, Sigma-Aldrich, in SAB) and incubated for 1 h at 37° C. TGF-β1 was then dissolved in blocking solution at a concentration of 100, 200, or 400 ng/ml. The plates are washed three times with SAB and each dilution of protein (200 μl) is dispensed into triplicate wells and incubated for 2 h at 37° C., rinsed with SAB and 200 μl of 750 ng/ml monoclonal mouse anti-TGF-β1 antibody (MAB2401, R&D Systems) added in blocking solution. Plates are then incubated for 1 h at 37° C., washed with SAB, and 200 μl of 1 μg/ml polyclonal goat anti-mouse biotinylated antibody (ab6788, Abcam) added in blocking solution. Again, plates are incubated for 1 h at 37° C., washed with SAB, and 200 μl of 220 ng/ml ExtrAvidin AP (Sigma-Aldrich) is added in blocking solution, incubated for 30 min at 37° C., and then rinsed with SAB. Finally, 200 μl of development reagent (SigmaFAST p-Nitrophenyl phosphate, Sigma-Aldrich) is added, incubated at 37° C. for 40 min and read at 405 nm within 1 h.
To determine the ability of TGF-β1 to bind to heparin, we utilized positively-charged GAG-binding plates (Iduron) as a capture substrate. GAGs were immobilized in each well and then challenged with TGF-β1 according to the manufacturer's instructions. Briefly, triplicate wells were first pre-coated with 5 μg/ml of full length heparin, size-fractionated heparin (dp14, 16, 18, 20, 22 and 24) or selectively […] heparin prepared in standard assay buffer (SAB: 100 mM NaCl, 50 mM sodium acetate, 0.2% v/v Tween 20, pH 7.2), and then incubated overnight at room temperature. The plates were next washed carefully three times with SAB, blocked with 250 μl of blocking solution (0.4% w/v fish skin gelatine, Sigma-Aldrich, in SAB) and incubated for 1 h at 37° C. TGF-β1 was then dissolved in blocking solution at a concentration of 100, 200, or 400 ng/ml. The plates were washed three times with SAB and each dilution of protein (200 μl) was dispensed into triplicate wells and incubated for 2 h at 37° C., rinsed with SAB and 200 μl of 750 ng/ml monoclonal mouse anti-TGF-β1 antibody (MAB2401, R&D Systems) added in blocking solution. […] Finally, 200 μl of development reagent (SigmaFAST p-Nitrophenyl phosphate, Sigma-Aldrich) was added, incubated at 37° C. for 40 min and read at 405 nm within 1 h.

[4] = tested on: chondrogenic differentiation of hMSCs; assay: qPCR of day 3 chondrogenic micromass pellets (Example 1); assay type: cell-based, human; details: 3-day old pellets; SB431542 10 μM vs DMSO
Method: Chondrogenic differentiation was carried out using a modified micromass culture system as described by Zhang et al. (32). Briefly, passage 4 hMSCs were harvested and resuspended in chemically defined chondrogenic media (PT-3003, Lonza) at 2×10^7 cells/ml. Droplets of 12.5 μl were then seeded into the middle of each well in a 24-well plate and left to adhere at 37° C. for 2 h, after which, 500 μl of chondrogenic media supplemented with either 10 ng/ml of TGF-β1 (100-21C, PeproTech) alone (Media) or TGF-β1 with 10 μg/ml of heparin (Sigma-Aldrich) (Media+Hep) was added to each well. The cell droplets coalesced into spherical masses after 24 h and the micromasses harvested on day 3. Human MSCs were cultured in 6-well plates in basal media for 24 h at a density of 10,000 cells/cm^2. TGF-β1 treatments were then prepared at either 1 ng/ml or 5 ng/ml alone or in the presence of either 10 μg/ml or 40 μg/ml of full length heparin, or 1 ng/ml of TGF-β1 with 10 μg/ml size-fractionated or selectively desulfated heparin, HS^PM, HS16+ or HS16−, and incubated at room temperature for 10 min before being added to the cells. Latent TGF-β1 (LTGF-β1) treatments were similarly prepared at 3.3 ng/ml alone or with 10 μg/ml of the various GAGs described above. For inhibitor studies, the cells were pre-treated for 30 min with 10 μM SB431542 (Sigma-Aldrich) or DMSO before treatment with TGF-β1. The cells were then subjected to the various TGF-β1 treatments for 1, 6 or 24 h and lysed in 2× Laemmli buffer, before being resolved on a 4-12% SDS-PAGE gel. Samples were then immunoblotted with antibodies against SMAD2/3 (#3102, Cell Signaling), phosphorylated SMAD2 (pSMAD2, #3108, Cell Signaling), phosphorylated SMAD3 (pSMAD3, #9520, Cell Signaling) and actin (MAB1501R, Millipore). Densitometry was carried out using Quantity One software (version 4.6.6, Bio-Rad). Total RNA was isolated from chondrogenic micromass pellets using TRIZOL reagent (Invitrogen, Life Technologies) according to the manufacturer's protocol. Reverse transcription was carried out on 1 μg RNA using the SuperScript® VILO™ cDNA Synthesis Kit (Invitrogen, Life Technologies) following the manufacturer's instructions, with the incubation at 42° C. being carried out for 2 h instead of 1 h. Each qPCR contained 40 ng cDNA, 1 μl TaqMan® primer-probe mix per gene, and 10 μl Taqman® Fast Universal PCR Master Mix (Applied Biosystems, Life Technologies) in a final volume of 20 μl. Thermal cycling conditions were 95° C. for 20 s, followed by 45 cycles of 95° C. for 3 s and 60° C. for 30 s. Each qPCR was run in duplicate and gene expression was normalized to HPRT1 expression to obtain the ΔCt value. […] Relative expression levels for each primer set were expressed as fold changes by the 2^−ΔΔCt method (36). […]

T1 sequence (P01137 279-390 limits assumed): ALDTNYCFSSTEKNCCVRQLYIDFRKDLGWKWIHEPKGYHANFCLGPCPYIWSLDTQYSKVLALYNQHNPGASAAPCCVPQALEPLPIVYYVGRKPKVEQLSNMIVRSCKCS

| Compound | ability to competitively inhibit TGF-β1 binding to immobilized heparin (TGF-β1 [1]) | pSMAD2 and pSMAD3 levels [2] | reduction of TGF-β1 binding compared to fully sulfated, full-length heparin (TGF-β1 [3]) | loss of TGF-β1-binding ability (TGF-β1 [1]; 200 nM TGF-β1 with 5 or 10 μg GAG, relative to heparin) | COMP gene expression [4] | SOX9 gene expression [4] | TGF-β1 binding to immobilized GAG (TGF-β1 [3]; TGF-β1 100, 200 or 400 ng/ml) |
| --- | --- | --- | --- | --- | --- | --- | --- |
| 2-O-desulfated heparin | minimal effect | increase to levels beyond those seen in heparin-treated cells | about 60% |  |  |  |  |
| 6-O-desulfated heparin |  | stabilization of pSMAD levels | approximately 80% | approximately 40% |  |  |  |
| NC(=O)c1ccc(-c2nc(-c3ccc4c(c3)OCO4)c(-c3ccccn3)[nH]2)cc1 [SB431542] |  |  |  |  | reduction | reduction |  |
| N-desulfated heparin | abrogated | did not lead to an increase in pSMAD levels |  |  |  |  | essentially abolished |
